US9295629B2, “WNT family-derived peptides and use thereof” (CAREGEN CO., LTD., priority 2011, dated 2016)
Where no end group is shown, it is not given here.

Columns and labels:
HaCaT keratinocytes = assay: SRB colorimetric cell growth assay, keratinocytes; type: cell-based; details: 72 hr; for growth of keratinocytes, microscope image: observed under a microscope (FIG. 3a); for effect on the growth of keratinocytes: peptide 1 ng/ml-10 μg/ml, SRB absorbance at 590 nm (FIG. 2a)
Experimental: (§1) In order to evaluate three peptides prepared in Preparation Examples 1-2 whether they have similar activities of growth factor, SRB (Sulforhodamine B; Sigma-Aldrich) colorimetric assay was carried out using HaCaT kerationcytes (Korean Cell Line Bank) and NIH3T3 fibroblasts (Korean Cell Line Bank) according to Rizzino et al. method (Rizzino, et al. Cancer Res., 48: 4266 (1988)).
(§2) HaCaT ketatinocytes, NIH3T3 fibroblasts, and HHFDPC hair follicle cells (cell science) were cultured in 250 ml-flasks containing DMEM (Dulbecco's Modified Eagle's minimal essential media; Gibco, USA) supplemented with 10% FBS (fetal bovine serum; Sigma). Cells cultured were treated with 1% trypsin solution to detach cells from the bottom of culture flasks and centrifuged to collect cell pellets. After cells were resuspended in DMEM not containing FBS, its aliquot (3×10^3 cells) was added to each well of 96-well plates and cultured under 5% CO2 for 24 hr at 37° C. After 24-hr culture, the medium was changed with a fresh medium without serum and cells were incubated with empty sample (for normalization) and peptides synthesized (1 ng/ml, 10 ng/ml, 100 ng/ml, 1 μg/ml and 10 μg/ml) aseptically dissolved in 10% DMSO for 72 hr under the same conditions as described above. After removing supernatants, cells were fixed with ethanol and then washed three times using PBS (phosphate buffered saline), followed by incubation with SRB solution. Cells were sufficiently washed with 1% acetic acid and observed under a microscope to find living cell condition. In addition, absorbance at 590 nm was measured to analyze cell viability. Meanwhile, after culturing under the same conditions, the tissue was immunostained by an immunohistochemical assay with ki-67 antibody (SantaCruz, USA) and the amount of ki-67 protein as a cell proliferation marker was observed.

NIH3T3 fibroblasts = assay: SRB colorimetric cell growth assay, fibroblasts; type: cell-based; details: for growth of fibroblasts, microscope image: NIH3T3, 72 hr, observed under a microscope (FIG. 3b); for effect on the growth of fibroblasts: NIH3T3, peptide 1 ng/ml-10 μg/ml, 72 hr, SRB absorbance at 590 nm (FIG. 2b)
Experimental: as §1, §2

[1] = system: HHFDPC hair follicle cells; assay: SRB colorimetric cell growth assay, hair follicle cells; type: cell-based; details: 72 hr; for growth of cells in hair follicles, microscope image: observed under a microscope (FIG. 3c); for effect on the growth of cells in hair follicles: peptide 1 ng/ml-10 μg/ml, SRB absorbance at 590 nm (FIG. 2c)
Experimental: as §2

LRP5 = assay: Western blot of Phospho-LRP5 in HaCaT keratinocytes; type: cell-based; details: peptide 5 hr, Western blot (FIG. 4)
Experimental: (§3) HaCaT kerationcytes cultured for 48 hr were incubated with the peptides synthesized in preparation Example 1 for 5 hr. The phosphorylation level of LRP5, which is the receptor of WNT protein and expression level of β-catenin, which is the signal molecule of WNT protein were examined respectively. The amount of Phopho-LRP5 and β-catenin were measured by Western blot analysis using an antibody against Phopho-LRP5 (Cell signaling) and β-catenin (SantaCruz, USA). In addition, the expression level of LEF-1 transcription factor was also observed, which is enhanced by β-catenin. […] First of all, it was shown that β-catenin activity is observed by treatment with the peptide of the present invention in spite of the presence of DKK-1 as a WNT inhibitor and a β-catenin signaling inhibitor (FIG. 5b). It was also observed that the expression level of LEF-1 transcription factor was increased by the treatment of the present peptides (FIG. 6).

β-catenin = assay: Western blot of β-catenin in HaCaT keratinocytes; type: cell-based; details: for expression level / activity of β-catenin: peptide 5 hr, Western blot (FIG. 5a); for β-catenin expression / activity in the presence of DKK-1: with DKK-1 (WNT inhibitor), Western blot (FIG. 5b)
Experimental: as §3

fibronectin = assay: Fibronectin ELISA in NIH3T3 fibroblasts; type: cell-based; details: for fibronectin expression with the lapse of time: NIH3T3, peptide 1 μg/ml, 3, 10, 24 or 48 hr, ELISA (FIG. 7a); for fibronectin expression in the presence of DKK-1: NIH3T3, treated with both DKK-1 protein and peptide, ELISA (FIG. 7b)
Experimental: To verify whether the peptides synthesized in preparation Example 1 enhances the expression of fibronectin as a WNT target protein, NIH3T3 fibroblasts (4×10^3 cells) was added to each well of 96-well plates and cultured under 5% CO2 for 24 hr at 37° C. After 24-hr culture, the medium was changed with a fresh medium without serum and cells were treated with empty sample (for normalization), three peptides synthesized (1 μg/ml) and peptide complex (1 μg/ml) aseptically dissolved in 10% DMSO for 3 hr, 10 hr, 24 hr or 48 hr under the same conditions as described above. After 72 hr incubation, the cell culture was collected and the expression level of fibronectin was measured using Fibronectin ELISA kit (R&D systems, USA).
In addition, after DKK-1 protein was treated and cultured under the same conditions, the expression level of fibronectin was examined.

C57BL/6 mouse back skin = assay: Mouse hair growth, topical peptide nanosome; type: in vivo; details: nanosome topically twice every day for 15 days (FIG. 8)
Experimental: The peptide synthesized in Preparation Example 1 was formulated into nanosome. Afterwards, the back of C57BL/6 mouse was partially removed and then the skin was topically administered with the nanosome twice every day for 15 days.
50 mg of each peptide synthesized in preparation Examples was dissolved in 500 ml of distilled water by sufficient agitation. The peptide solution was mixed with 5 g lecithin, 0.3 ml sodium oleate, 50 ml ethanol and a small amount of oils, and its volume was adjusted with distilled water to 1 L. The resulting solution was subjected to a microfluidizer under high pressure for emulsification, thereby providing nanosomes having about 100-nm size. The nanosomes were prepared to have a final concentration of about 50 ppm and used as ingredients for cosmetics.

**Q.** With “peptide-4: WNT-derived peptide, amino acid sequence LCCGRGHNVL (WNT-derived peptide 4)” as the substance, how does the “growth of keratinocytes, microscope image” value (HaCaT keratinocytes) read?
**A.** promote the growth

**Q.** What about the “effect on the growth of keratinocytes” value (HaCaT keratinocytes) of the same substance?
**A.** stimulatory effect

**Q.** And the “growth of fibroblasts, microscope image” value (NIH3T3 fibroblasts)?
**A.** promote the growth

**Q.** What about the “effect on the growth of fibroblasts” value (NIH3T3 fibroblasts) of the same substance?
**A.** stimulatory effect

**Q.** And the “growth of cells in hair follicles, microscope image” value (“growth of cells … microscope image” below) [1]?
**A.** promote the growth

**Q.** What about the “effect on the growth of cells in hair follicles” value (“effect on the growth of cells” below) [1] of the same substance?
**A.** stimulatory effect

**Q.** And the “phosphorylation level of LRP5” value (LRP5)?
**A.** enhancement

**Q.** What about the “expression level / activity of β-catenin” value (β-catenin) of the same substance?
**A.** enhancement

**Q.** And the “β-catenin expression / activity in the presence of DKK-1” value (“β-catenin expression / activity” for short) (β-catenin)?
**A.** β-catenin expression in spite of the presence of DKK-1

**Q.** And the “fibronectin expression with the lapse of time” value (fibronectin)?
**A.** gradually elevated

**Q.** What about the “fibronectin expression in the presence of DKK-1” value (fibronectin) of the same substance?
**A.** restored and enhanced

**Q.** And the “hair growth on mouse back skin” value (C57BL/6 mouse back skin)?
**A.** activity for promoting hair growth

**Q.** Which “growth of keratinocytes, microscope image” value (HaCaT keratinocytes) does the source give for “peptide-3: WNT-derived peptide, amino acid sequence AERRRELCRC (WNT-derived peptide 3)” here?
**A.** promote the growth

**Q.** And the “effect on the growth of keratinocytes” value (HaCaT keratinocytes)?
**A.** stimulatory effect

**Q.** And the “growth of fibroblasts, microscope image” value (NIH3T3 fibroblasts)?
**A.** promote the growth

**Q.** And the “effect on the growth of fibroblasts” value (NIH3T3 fibroblasts)?
**A.** stimulatory effect

**Q.** What about the “growth of cells … microscope image” value [1] of the same substance?
**A.** promote the growth

**Q.** And the “effect on the growth of cells” value [1]?
**A.** stimulatory effect

**Q.** And the “phosphorylation level of LRP5” value (LRP5)?
**A.** enhancement

**Q.** And the “expression level / activity of β-catenin” value (β-catenin)?
**A.** enhancement

**Q.** What about the “β-catenin expression / activity” value (β-catenin) of the same substance?
**A.** β-catenin expression in spite of the presence of DKK-1

**Q.** And the “fibronectin expression with the lapse of time” value (fibronectin)?
**A.** gradually elevated

**Q.** What about the “fibronectin expression in the presence of DKK-1” value (fibronectin) of the same substance?
**A.** restored and enhanced

**Q.** And the “hair growth on mouse back skin” value (C57BL/6 mouse back skin)?
**A.** activity for promoting hair growth

**Q.** Which results are given for “peptide-2: WNT-derived peptide, amino acid sequence LCCGRGHNAR (WNT-derived peptide 2)”?
**A.** growth of keratinocytes, microscope image (HaCaT keratinocytes): promote the growth; effect on the growth of keratinocytes (HaCaT keratinocytes): stimulatory effect; growth of fibroblasts, microscope image (NIH3T3 fibroblasts): promote the growth; effect on the growth of fibroblasts (NIH3T3 fibroblasts): stimulatory effect; growth of cells in hair follicles, microscope image [1]: promote the growth; effect on the growth of cells in hair follicles [1]: stimulatory effect; phosphorylation level of LRP5 (LRP5): enhancement; expression level / activity of β-catenin (β-catenin): enhancement; β-catenin expression / activity in the presence of DKK-1 (β-catenin): β-catenin expression in spite of the presence of DKK-1; fibronectin expression with the lapse of time (fibronectin): gradually elevated; fibronectin expression in the presence of DKK-1 (fibronectin): restored and enhanced; hair growth on mouse back skin (C57BL/6 mouse back skin): activity for promoting hair growth

**Q.** How did the “growth of keratinocytes, microscope image” value (HaCaT keratinocytes) turn out when “LCCGRGHRTRTQR (cysteine pairing not given here) [peptide-1]” was run?
**A.** promote the growth

**Q.** What about the “effect on the growth of keratinocytes” value (HaCaT keratinocytes) of the same substance?
**A.** stimulatory effect

**Q.** What about the “growth of fibroblasts, microscope image” value (NIH3T3 fibroblasts) of the same substance?
**A.** promote the growth

**Q.** And the “effect on the growth of fibroblasts” value (NIH3T3 fibroblasts)?
**A.** stimulatory effect

**Q.** And the “growth of cells … microscope image” value [1]?
**A.** promote the growth

**Q.** And the “effect on the growth of cells” value [1]?
**A.** stimulatory effect

**Q.** And the “phosphorylation level of LRP5” value (LRP5)?
**A.** enhancement

**Q.** What about the “expression level / activity of β-catenin” value (β-catenin) of the same substance?
**A.** enhancement

**Q.** And the “β-catenin expression / activity” value (β-catenin)?
**A.** β-catenin expression in spite of the presence of DKK-1

**Q.** What about the “fibronectin expression with the lapse of time” value (fibronectin) of the same substance?
**A.** gradually elevated

**Q.** What about the “fibronectin expression in the presence of DKK-1” value (fibronectin) of the same substance?
**A.** restored and enhanced

**Q.** What about the “hair growth on mouse back skin” value (C57BL/6 mouse back skin) of the same substance?
**A.** activity for promoting hair growth
